The text below walks through data of patent publication US9988635B2, “Modulation of growth hormone receptor expression and insulin-like growth factor expression” (Antisense Therapeutics Limited, priority 2003, dated 2018).

Series [1] concerns serum IGF-I. The conditions noted are these: animal models; decreased tumor volume in breast cancer; cited from earlier work.
The conditions of series [2]: cited from earlier work.
Series [3] concerns growth hormone receptor mRNA. The series can be described thus: Growth hormone receptor mRNA levels in liver, 2 week study. The following applies: 30 mg/kg; two-week study. Format: in vivo, mouse. The procedure:
(§1) A two-week study was done in similar fashion to the one-week study in Example 18, this time using ISIS 227446 at doses of 3, 5, 10, 20 and 30 mg/kg. The mismatch control was given at the same doses. Mice were treated with antisense compound or saline every other day for 14 days.
Growth hormone receptor mRNA levels in liver tissue samples from treated and untreated mice in this two-week study were assayed. The growth hormone receptor antisense inhibitor ISIS 227446 reduced growth hormone receptor mRNA levels in liver after the two-week study by 50% at the 20 mg/kg dose relative to saline control (p<0.001). The 30 mg/kg dose of ISIS 227446 yielded a 53% decrease in growth hormone receptor mRNA (p<0.0001). The mismatch control oligonucleotide ISIS 261303 (SEQ ID NO: 267), at 30 mg/kg, reduced growth hormone receptor mRNA levels by approximately 3%.

The subject of series [4] is serum insulin-like growth factor-I. Description: Serum IGF-I by radioimmunoassay, 1 week pilot study in Balb/C(a) mice. Format: in vivo, mouse. The procedure:
Forty male Balb/C(a) mice weighing 9 to […] were placed into cages, 4 animals per cage, and allowed to assimilate into their environment with new littermates ˜1 week prior (Day −7) to the commencement of 1 week study. Mice of this age would be at their maximum growth rate. Their body weights were measured and recorded every second day during this period. When mice weighed 11 g (day −2), a blood sample was collected under anesthesia as described below, and a serum IGF-I assay was performed to determine pre-treatment values and to aid in the assigning of mice to treatment groups in order to reduce animal variability. To obtain the blood sample, the animals were anaesthetized with pentobarbital (50 mg/kg i.p.) and non-fasting blood samples collected exactly 5 minutes later from the retrobulbar plexus through heparinized capillary tubes under light ether anesthesia. The 40 animals were placed into five groups with each group having a similar weight average and similar IGF-I average concentration for the trial.
Animals (n=8/group) were designated to the following five treatment groups:
(§2) Saline, antisense, mismatch control and octreotide samples were prepared, and coded for blinding. Animals were given a subcutaneous dose of saline every second day, and mismatch control or antisense with administration on days 0, 2, 4, 6. Animals were given twice daily doses of 25 μg octreotide. Animals were housed 4 per cage, for the duration of one week. They had access to a pre-determined quantity of standard mouse food and water at all times throughout the experiment. They were housed in a quiet, temperature- and humidity-maintained environment for the entirety of the study. At day 0 and before treatment on each day or second day, the animals had their body weight and food intake measured, enabling the correct dose of agent to be administered. The animals were monitored closely for any changes in fur, skin, eye, locomotion or other changes in behavior. No problems were observed. Every second day from day −7 to day 7 body weight and food intake were measured.
On day 7, one day after the last dose of antisense, and/or after the last octreotide dose, the animals were anaesthetized with pentobarbital (50 mg/kg i.p.) and non-fasting blood samples collected exactly 5 minutes later from the retrobulbar plexus through heparinized capillary tubes under light ether anesthesia (as on day −7 and 0).
At day −2 and day 7, serum IGF-I measurement was done by radioimmunoassay. Serum IGF-I level is the most widely used measure of growth hormone biological activity in human therapy. It is used to measure the efficacy of growth hormone antagonist treatments like Trovert, which block cells' responsiveness to excess growth hormone, and dopamine agonists and octreotide somatostatin […] drugs that block growth hormone secretion from the pituitary.

The next series has as its system growth hormone receptor. Description: [125I] hGH specific binding assay on liver microsomal membranes of treated mice. Format: in vivo, mouse. On the procedure:
Specific binding assays were carried out with liver tissue using iodinated human growth hormone [^125I] hGH.
Microsomal membrane preparations were obtained as follows. 400 mg of tissue powder was homogenized in cold homogenizing buffer (50 mM Tris/HCl, 250 mM sucrose, pH 7.4). This was centrifuged at 2000 rpm for 10 min at 3° C. and the supernatant was saved. This was centrifuged again at 15,000 rpm for 20 min. Pellets were resuspended in 0.5 ml of RRA buffer with inhibitor (50 mM Tris, 20 mM MgCl2, pH 7.4). Microsomal preparation samples were stored at −80° C. until the specific binding assay.
The [^125I] hGH specific binding assay was done as follows. Four glass tubes were set up for each sample, two for (−), two for (+). Different sample and solutions were added in each tube as follows (i) 0.2 ml RRA buffer (50 mM Tris, 20 mM MgCl2, 0.1% BSA, pH 7.4); (ii) 0.1 ml membrane (½ or ¼ dilution); (iii) 0.1 ml bGH (10 μg/ml) for the (+) tube or 0.1 ml RRA buffer for the (−) tube; and (iv) 0.1 ml [^125I]-hGH tracer.
Samples were incubated at 4° C. with shaking overnight. The reaction was stopped with 2.5 ml of cold RRA, and the sample centrifuged at 2800 rpm for 25 min at 4° C. Supernatant was aspirated and pellets counted using the γ-counter. The specific binding capacity was calculated as: CPM(−)-CPM(+). Protein content of the microsomal samples was determined by the BCA protein assay.
A general note: Liver microsomes are a subcellular fraction often used to study metabolism.

For series [5], the system named is serum IGF-I. The series can be described thus: Serum IGF-I, 2 week study in mice. The following applies: 3 mg/kg; equivalent to saline (untreated) control (separate experiment). Format: in vivo, mouse. On the procedure:
as §1
P-values were determined by t-test.

Series [6] in a line: Body weight, body length, organ weights and food intake, 1 week pilot study. The conditions noted are these: 30 mg/kg every second day. Format: in vivo, mouse. On the procedure:
as §2
The serum remaining following the insulin-like growth factor-1 assay was isolated and stored at −80° C. The whole liver was removed rapidly for weighing and snap-frozen in labelled aluminum parcels by submersion in liquid-nitrogen. […]
This confirms published results of others. […] Weight was measured in two ways: weight trend (live animal), and final carcass weight. […]

The mark [7] stands for this setting: 30 mg/kg s.c. once every 2 days, 1 week.
Where [8] appears, read: liver microsomal membranes, 30 mg/kg every second day for one week.
[9] abbreviates: 30 mg/kg s.c. every second day for one week.
Setting [10] is: 30 mg/kg every second day for one week.

In the oligonucleotide strings, read from the 5' end, every base follows the letter of its sugar. An asterisk marks phosphorothioate; unmarked linkages are phosphodiester. Other units and linkages are bracketed, terminal groups are in braces. A string of capitals states the bases alone. e = 2'-O-(2-methoxyethyl) (MOE); [5mC] = 5-methylcytosine; d = 2'-deoxy (DNA)

On to Pegvisomant [Trovert], for which the “reduction of serum IGF-I” value in the series on serum IGF-I [1] was 20-50%. Further, the drop-out rate in series [2] (clinical trial experience) is on record as 10%. The “serum insulin-like growth factor-I levels reduced by” value in series [2] (human therapeutic Trovert doses, 12 week and greater than 1 year studies) was 50%. Further, the “antibodies being made to Trovert, time of dosing” value in series [2] (immunogenicity) was not above 1 month. Moreover, the “effective in % of patients” value in series [2] (patients with acromegaly) is 90-95%.
Consider “ISIS 261303: negative control oligonucleotide, 8-base mismatch to ISIS 227446 (DNA AGAGAGCTACCTAACTAACA; chemistry not given here) [reference compound]”, for which the “reduction of growth hormone receptor mRNA levels in liver” value in series [3] is “approximately 3%”. Further, in series [4] (setting [7]), the “% IGF-I reduction at day 7 compared to saline control at day 7” value (“% IGF-I reduction” for short) worked out at 21% and the “IGF-I (ng/ml) Day 7” value was determined as 81.1 ± 19.16 ng/mL. Also, the “% IGF-I reduction” value in series [4] (30 mg/kg s.c. once every 2 days, 1 week, listed as Mismatch) came to 20.98%. Moreover, in series [4] (pre-treatment value, 30 mg/kg once every 2 days group), the “IGF-I (ng/ml) Day −2” value is 184.87 ± 55.6 ng/mL. In the series with growth hormone receptor (30 mg/kg), the “effect on growth hormone receptor levels compared to the control saline group” value was “no effect”. In addition, in the series with growth hormone receptor (setting [8]), the “Specific binding/mg protein (cpm) ¼ dilution” value came out at 8431 ± 2663 cpm and the “Specific binding/mg protein (cpm) ½ dilution” value was determined as 7090 ± 1877 cpm.
Turning to “acaaagatccatacctgaga (eA*e[5mC]*eA*eA*eA*dG*dA*dT*d[5mC]*d[5mC]*dA*dT*dA*d[5mC]*d[5mC]*eT*eG*eA*eG*eA; antisense) [ISIS 227446]”, in series [3], the “reduction of growth hormone receptor mRNA levels in liver” value came to 53%. Moreover, the “serum IGF-I as % of the control (saline) group” value in series [4] (setting [9]) turned out to be 55%. Moreover, the “% IGF-I reduction” value in series [4] (setting [7]) is given as 45%. Also, the “% IGF-I reduction” value in series [4] (30 mg/kg s.c. once every 2 days, 1 week, listed as ASO) is 44.51%. The “effect on serum IGF-I levels” value with serum IGF-I [5] is “no effect”. In addition, the “influence on body weight or organ weights” value in series [6] is recorded as “not sufficient to influence body weight or organ weights”. In the series with growth hormone receptor (setting [10]), the “reduction of specific binding compared to saline, ¼ dilution” value is 39% and the “reduction of specific binding compared to saline, ½ dilution” value amounted to 26%. Further, the “growth hormone receptor levels (growth hormone binding activity) as % of control (saline) group” value in the series with growth hormone receptor (setting [9]) is on record as 61%. Besides, the “growth hormone receptor levels as % of the control (mismatch) group” value in the series on growth hormone receptor (½ dilution experiment, 30 mg/kg) is recorded as 59%.
